According to publication PMC10917278, “Structural insights into the modulation Of SOD1 aggregation By a fungal metabolite Phialomustin-B: Therapeutic potential in ALS” (PLOS ONE, 2024):
Entries after “also recorded” stand apart in the source; their conditions may differ.

Experiments:
SOD1^L42R = molecular target: T1, SOD1^L42R (Homo sapiens, UniProt P00441, L43R); test: MST binding assay, site-specific mutant SOD1^L42R; conditions: PBS buffer, mutant 25 nM, PB 30.5 nM to 250 μM, 25 °C, SEM n = 3, read-out: binding affinity Kd
T1 construct: His-tag (cleaved yes); made in house; host or cells: E. coli BL21-DE3
Protocol: (§1) To further validate the binding of PB to SOD1, site-directed mutagenesis was performed for the interacting residues at the binding sites of PB. The point mutations generated on the SOD1 protein are K9F, G10P, L42R, and A123F. The MST assay was carried out on these mutants against PB (Fig 5). The dose-response curve with the highest signal-to-noise ratio, high response amplitude, and lowest error rate was selected for measuring the binding affinity (Kd) value. […] Binding at the electrostatic loop is affected majorly by mutating residues at A123 to phenylalanine and L42 to arginine. […] Taken together, the binding affinities of these mutants confirm the ligand bindings at these sites of SOD1 are specific.
(§2) Fig 5 MST interaction analysis of fluorescently labeled SOD1 mutants against PB. The binding of PB to fluorescently Cys-labeled SOD1- variants is quantified in PBS buffer. The concentration of PB varied from 30.5 nM to 250 μM, while the respective mutants were kept constant at 25 nM. MST experiments were conducted at 20% LED excitation and medium MST power at 25 °C. […] Error bars indicate the standard error of the mean, SEM (n = 3). […] The ligand PB is printed only in the titles of panels a-d, so the mutant names are used as the substance labels.
(§3) Binding studies were performed for SOD1^WT and the ligands using microscale thermophoresis (MST). […]

SOD1^A123F = molecular target: T2, SOD1^A123F (Homo sapiens, UniProt P00441, A124F); test: MST binding assay, site-specific mutant SOD1^A123F; conditions: PBS buffer, mutant 25 nM, PB 30.5 nM to 250 μM, 25 °C
T2 construct: His-tag (cleaved yes); made in house; host or cells: E. coli BL21-DE3
Protocol: as §1, §2, §3

SOD1^G10P = molecular target: T3, SOD1^G10P (Homo sapiens, UniProt P00441, G11P); test: MST binding assay, site-specific mutant SOD1^G10P; conditions: PBS buffer, mutant 25 nM, PB 30.5 nM to 250 μM, 25 °C, SEM n = 3, read-out: binding affinity Kd
T3 construct: His-tag (cleaved yes); made in house; host or cells: E. coli BL21-DE3
Protocol: as §1, §2, §3

T2 sequence (P00441 whole entry A124F): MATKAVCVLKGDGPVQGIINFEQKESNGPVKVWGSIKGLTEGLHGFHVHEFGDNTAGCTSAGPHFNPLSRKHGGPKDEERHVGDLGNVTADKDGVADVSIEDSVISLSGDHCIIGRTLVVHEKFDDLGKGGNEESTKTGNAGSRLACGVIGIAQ
T3 sequence (P00441 whole entry G11P): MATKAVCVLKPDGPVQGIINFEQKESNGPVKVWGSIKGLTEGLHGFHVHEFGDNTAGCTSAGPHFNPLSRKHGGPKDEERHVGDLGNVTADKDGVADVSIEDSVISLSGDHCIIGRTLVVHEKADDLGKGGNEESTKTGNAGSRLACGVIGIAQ
T1 sequence (P00441 whole entry L43R): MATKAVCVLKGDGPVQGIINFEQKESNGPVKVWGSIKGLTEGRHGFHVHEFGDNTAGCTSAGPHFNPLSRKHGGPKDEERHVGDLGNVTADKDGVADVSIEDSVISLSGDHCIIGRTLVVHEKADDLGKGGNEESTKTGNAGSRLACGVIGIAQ

- Kd (SOD1^L42R): 225 ± 4.29 µM
- Kd (SOD1^G10P): 15.9 ± 2.65 µM
SMILES: CCCC[C@H](C)/C=C(C)/C=C/C(=O)O [PB, (S, 2E, 4E)-4,6-dimethyldeca-2,4-dienoic acid]
- binding affinity Kd (SOD1^A123F): very weak binding; also recorded: weak-binding
